We go through 1 compound from patent US20180027807A1, “Vermin Control Compositions” (priority 2013, published 2018).

Series [1] can be described thus: Accelerated stability study of cholecalciferol in DMSO/ethanol formulations. Type of series: physicochemical. The settings on record: across all formulations, 25° C.±2° C./60% RH±5%. Here is the method:
The stability of cholecalciferol in the chosen penetration enhancer is an important consideration when analysing the physical properties of the formulation. An unstable formulation which causes cholecalciferol to degrade would result in delivery of sub-lethal doses. […] Conversely, cholecalciferol solutions in surfactants and oils are said to be stable over long periods at 40° C. In order to assess the stability of cholecalciferol when combined with the chosen penetration enhancers an accelerated stability study was performed. In total, 6 formulations with varying types and concentration of penetration enhancers were stored in an accelerated stability cabinet at 25° C.±2° C./60% RH±5%. Each formulation contained 10% (w/v) cholecalciferol. Each formulation was made up a day before the intended start date of the stability study and left in a water bath/shaker overnight at 25° C. to allow adequate time for the cholecalciferol to dissolve. Amber bottles were used to prevent photo-degradation and parafilm was used to seal round the screw lid to prevent oxidative degradation from the air. At each sampling point the lid was removed and 200 μl taken; the sample was serially diluted 8 times (256-fold) before analysis with HPLC.
All formulations contain 10% (w/v) cholecalciferol.

The conditions of series [2]: cited from earlier work.
For series [3] the following is noted: crystalline form, 7 days, cited from earlier work.

Read-outs that look alike come from different tables or passages of the source.

For the compound `C=C1CC[C@H](O)C/C1=C/C=C1\CCC[C@]2(C)[C@@H]([C@H](C)CCCC(C)C)CC[C@@H]12` [cholecalciferol], the degradation of cholecalciferol in series [1] (during the first 10 days) amounted to 16.83%. Also, the “degradation of cholecalciferol (drop in potency)” value in series [1] (over 50 days, 10% (w/v) in DMSO/ethanol ratios, amber bottles) is 27.11%. Moreover, in series [2] (cholecalciferol in ethanol, classification taken from the British Pharmacopeia), the “Solubility (class)” value is “freely soluble (a solubility between 1-10 ml/g is classed as freely soluble)”. The solubility in water result in series [2] (cholecalciferol in water, stated) was “practically insoluble”. Also, the figures for the decrease in potency in series [3] (40° C./45% RH) and in series [3] (40° C./85% RH) were 35% and 85%, respectively.
